The results in this text go back to publication PMC3463587, “A Series of Beta-Carboline Derivatives Inhibit the Kinase Activity of PLKs” (PLoS ONE, 2012).

Assay [1] has as its system MG63 cells. The assay can be described thus: MTT cell proliferation assay, MG63. Conditions: Homo sapiens, MG-63, 48 hr. It counts as cell-based. The text has this:
(§1) BI2536 was purchased from Selleck (Selleck, USA).

In assay [2] the test system is HeLa cells. The assay can be described thus: MTT cell proliferation assay, HeLa. It counts as cell-based. The conditions noted are these: Homo sapiens, 48 hr.
Excerpt: as §1
For orientation: Tetrazolium assays rely on reduction of a dye to a coloured formazan, in cell work by metabolically active cells.

Assay [3] deals with PLK2 (Homo sapiens, UniProt Q9NYY3). The assay can be described thus: In vitro kinase assay PLK2. The assay is classed as biochemical. On the procedure:
The inhibition of PLK1 kinase activity was assessed using the Cyclex PLK1 Assay/Inhibitor Screening Kit (MBL International Corporation, Japan). The kit includes anti-phospho-threonine polyclonal antibody (PPT-07) and peroxidase coupled anti-rabbit IgG antibody as a reporter in a 96-well ELSIA format. Compounds were used at the concentrations from 10^− ^3 to 10^2 µg/ml and the absorbance was determined at 450 nm. A similar protocol was used to determine the kinase inhibition for PLK2, PLK3, Aurora A and Aurora B. The kinase activity of CDK1/cyclinB and CDK2/cyclinE was analyzed in the presence of serially diluted inhibitors. For each reaction, 20 ng of recombinant kinase was used and […] casein from bovine milk (Sigma) was added as the kinase substrate. The kinase reaction buffer contains 8 mM MOPS pH7.0, 0.2 mM EDTA, 0.1 mg/ml histone H1, 10 mM and MgAcetace and [γ^− ^33P-ATP] (500 cpm/pmol). The reaction was initiated by adding the MgATP mix. After incubation for 40 minutes at room temperature, the reaction was stopped by the addition of 3% phosphoric acid solution. We spotted 10 µl of the reaction mixture onto a P30 filtermat and washed three times for 5 min with 75 mM phosphoric acid and once with methanol prior to drying and scintillation counting.

The test system of assay [4] is HeLa cells. As to the kind of experiment: Immunofluorescence of spindle (anti-α-tubulin). The assay is classed as cell-based, human. The conditions noted are these: 1.21 µM, 24 hr. The text has this:
PLK1 plays a pivotal role in centrosome maturation and spindle formation during mitosis. Thus, the down-regulation of PLK1 activity would prevent centrosome maturation as well as the formation of a bipolar spindle. Anti-α-tubulin antibody was used for immunofluorescence staining in order to examine the spindle structure in cells treated with the beta-carboline compounds.
HeLa cells were collected and then grown onto cover-slips. […] After washed with washing buffer (Beyotime, P0106) for 3 times, the cells were incubated with blocking buffer (Beyotime, P0102) for 60 min. The primary antibody anti-α-tubulin (Abcam) was used at 1∶200 dilutions; H&L (Cy5)-labeled secondary antibody was used at 1∶200 dilutions. The cover-slips were then mounted with PBS:glycerol (1∶1) mounting medium containing DAPI and examined under an inverted confocal microscope. Images were analyzed by the 3D image software Volocity (Improvision).

The test system of assay [5] is Wee1 protein levels in HeLa cells. The assay can be described thus: Wee1 protein level (Western blotting). The assay is classed as cell-based, human. Conditions: 1.21 µM, 24 hr, compared to control cells. On the procedure:
As the inhibitory kinase for cyclin-dependent kinase (CDK), Wee1 is one of the substrates of PLK1 and this phosphorylation stimulates Wee1 degradation. We expect that the inhibition of PLK1 impairs the phosphorylation of Wee1, thereby resulting in elevated Wee1 protein levels. To test this possibility, we examined the protein levels of Wee1 in HeLa cells after treatment with 1.21 µM beta-carboline compounds for 24 hr. […] PLK1 also phosphorylates cyclin B1 and this phosphorylation promotes the nuclear localization of cyclin B1 [36]. After treatment with these beta-carboline compounds, a slight increase of cyclin B1 protein was observed (Figure 6B), and this increase could be a consequence of accumulation of cells in G2/M phase. However, the change of cyclin B1 levels is much less significant compared to the increase of Wee1 levels after treatment with these compounds.
HeLa cells were incubated with or without 1.21 µM DH281, DH285 and DH287 for 24 hr. The cells were washed twice with cold 1×PBS and lysed in RAPI buffer (Applygen technologies Inc.) for 30 min and centrifuged at 14,000 rpm for 20 min at 4°C. We separated 15 µl of total protein (1 µg/ µl) with 12% SDS-PAGE gels and transferred the proteins to PVDF membrane. […] The protein bands were detected using ECL System (Piscataway, New Jersey, USA). […]
In general terms: A western blot detects proteins with antibodies after separation by electrophoresis.

The subject of assay [6] is four cancer cell lines (HepG2, MG63, HeLa and PC3). The assay can be described thus: Growth inhibition of four cancer cell lines. It counts as cell-based, Human. The text has this: In order to find more efficient antitumor small molecules targeting PLK1, we synthesized additional 18 beta-carboline compounds and the structures of these compounds are shown in Figure 1. The growth inhibition of four cancer cell lines (HepG2, MG63, HeLa and PC3) by these compounds was examined. […] We selected DH281, DH285 and DH287 for further studies.

PLK2, sequence (Q9NYY3 whole entry, species assumed): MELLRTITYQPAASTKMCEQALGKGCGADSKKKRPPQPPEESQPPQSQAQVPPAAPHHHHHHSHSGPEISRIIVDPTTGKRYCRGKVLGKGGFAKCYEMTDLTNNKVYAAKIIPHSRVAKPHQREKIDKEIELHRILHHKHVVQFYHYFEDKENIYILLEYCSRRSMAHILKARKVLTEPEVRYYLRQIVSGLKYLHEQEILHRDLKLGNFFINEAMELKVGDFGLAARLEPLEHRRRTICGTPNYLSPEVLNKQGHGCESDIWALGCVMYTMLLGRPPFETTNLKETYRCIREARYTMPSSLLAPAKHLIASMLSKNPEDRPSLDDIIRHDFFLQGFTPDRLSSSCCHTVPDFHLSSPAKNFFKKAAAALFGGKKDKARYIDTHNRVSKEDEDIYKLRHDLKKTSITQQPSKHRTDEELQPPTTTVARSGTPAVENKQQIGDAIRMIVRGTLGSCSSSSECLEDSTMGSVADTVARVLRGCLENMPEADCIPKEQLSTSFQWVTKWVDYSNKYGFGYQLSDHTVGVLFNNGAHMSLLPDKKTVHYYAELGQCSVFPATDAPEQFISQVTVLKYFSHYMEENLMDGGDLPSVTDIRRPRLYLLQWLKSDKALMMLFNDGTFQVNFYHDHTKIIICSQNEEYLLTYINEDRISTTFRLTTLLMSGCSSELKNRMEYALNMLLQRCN

As a reminder, the IC50 is the concentration at which inhibition is half-maximal. For `Cc1c2c(cc[n+]1Cc1ccccc1)c1ccc(OCc3ccccc3)cc1n2Cc1ccccc1` [DH287], the values for the concentration for half-maximal inhibition (IC50) in assay [1], in assay [2] and in assay [3] were 1790 ± 290 nM, 1820 ± 150 nM and 4300 nM, respectively. The spindle structure entry in assay [4] is listed as “induced formation of monopolar spindles”. In assay [5], the Wee1 protein level result was “high levels of Wee1 protein”. For the same compound, the “antitumor activity (growth inhibition)” value in assay [6] is “very strong growth inhibition”.

Turning to `Cc1c2c(cc[n+]1Cc1ccccc1)c1ccc(OCc3ccc(F)cc3)cc1n2CCCc1ccccc1` [DH281], the IC50 in assay [1] is 1600 ± 150 nM; in assay [2], 510 ± 80 nM; in assay [3], 3820 nM. For the same compound, in assay [4], the spindle structure entry is listed as “induced formation of monopolar spindles”. Moreover, the Wee1 protein level entry in assay [5] is on record as “high levels of Wee1 protein”. For the same compound, in assay [6], the “antitumor activity (growth inhibition)” value was “very strong growth inhibition”.
